Laboratory results: patent US11965039B2, “Compstatin analogues and their medical uses” (priority 2018, dated 2024)
Starred links: 1 amine or outer side, 2 acyl side, 3 side chain; linkers in the order of their positions; H or OH if unused. Positions of bridges follow the written chain, without caps; N, C: chain ends. Non-standard residues stand in square brackets, D forms with d. Residues, ends and D or L forms follow the SMILES beside them. Groups on a side chain read outwards from the residue. *: point of attachment. Trp(1-Me) = Cn1cc(C[C@H](N)C(=O)O)c2ccccc21; C18 diacid = O=C(O)CCCCCCCCCCCCCCCCC(=O)*; C16 diacid = O=C(O)CCCCCCCCCCCCCCC(=O)*; γGlu = O=C(O)[C@H](CCC(=O)[*:2])N[*:1]; NMeI = CC[C@H](C)[C@H](NC)C(=O)O; AEEA = NCCOCCOCC(=O)O; Aoc = NCCCCCCCC(=O)O; Sar = CNCC(=O)O

The compounds below were run on classical complement pathway (assay: In vitro haemolysis assay (inhibition of classical complement pathway)). Settings: human serum, sensitized sheep red blood cells; Table 2; read-out: CP hemolysis IC50.
Assay type: cell-based, human
Procedure: The in vitro effect of the compounds of the present invention was assessed by measuring their inhibitory effect of the classical complement pathway in a haemolysis assay. Briefly, compounds of the present invention and reference compounds were dissolved in DMSO and diluted in Tris/Casein Assay Buffer (10 mM Tris, 145 mM NaCl, 0.5 mM MgCl2, 0.15 mM CaCl2), and 0.1% W/V Casein, adjusted to pH 7.4) as 9-point serial dilutions in a 96 well plate. Sensitized sheep red blood cells (RBC) coated with rabbit anti-sheep erythrocyte antiserum (Complement Technology, Inc., TX, USA) were washed in Tris/Casein Assay Buffer. […] from each well of diluted compound was added to a 96-well plate containing 50 μL diluted human serum (Complement Technology, Inc., TX, USA) and incubated for 15 minutes at room temperature. The serum dilution factor was optimized for every serum batch to obtain 70-90% of maximal haemolysis using the protocol. Then 50 μL sensitized sheep red blood cells were added to all wells (10^7 per well). After 30 minutes of incubation at 37 QC with gentle agitation, the reaction was stopped by addition of 50 μL Tris STOP Buffer per well (10 mM EDTA, 10 mM Tris, 145 mM NaCl adjusted to pH 7.4). The RBCs were then removed by centrifugation and the resulting supernatant measured for hemolysis by absorbance at 405 nm. The response was normalized relative to a positive and negative control (vehicle) to calculate the IC50 from the concentration response curve using the 4-parameter logistic (4PL) nonlinear model for curve fitting.

Row | Structure (SMILES) | IC50
1 | CC[C@H](C)[C@H](NC(C)=O)C(=O)N[C@H]1CSSC[C@@H](C(=O)N[C@H](C(N)=O)[C@@H](C)O)NC(=O)[C@H](CCCNC(=N)N)NC(=O)[C@H](Cc2c[nH]cn2)NC(=O)[C@H](C)NC(=O)CNC(=O)[C@H](Cc2c[nH]c3ccccc23)NC(=O)[C@H](CC(=O)O)NC(=O)[C@H](CCC(N)=O)NC(=O)[C@H](Cc2c[nH]c3ccccc23)NC(=O)[C@H](C(C)C)NC1=O [Compound 4W9A, reference compound] | 250 nM

Same assay, conditions: human serum, sensitized sheep red blood cells; Table 3, given as upper bounds; read-out: IC50, inhibition of hemolysis

Row | Structure (SMILES) | IC50
2 | CC[C@H](C)[C@H](NC(=O)[C@H](N)Cc1ccc(O)cc1)C(=O)N[C@H]1CSSC[C@@H](C(=O)N(C)[C@H](C(N)=O)[C@@H](C)CC)NC(=O)[C@H](CCCNC(=N)N)NC(=O)[C@H](Cc2c[nH]cn2)NC(=O)[C@H](C)NC(=O)CN(C)C(=O)[C@H](Cc2c[nH]c3ccccc23)NC(=O)[C@H](CC(=O)O)NC(=O)[C@H](CCC(N)=O)NC(=O)[C@H](Cc2cn(C)c3ccccc23)NC(=O)[C@H]([C@@H](C)CC)NC1=O [Compound 48, H-{d}YIC(1)I[1-Me-Trp]QDW[Sar]AHRC(1)[N-Me-Ile]-NH2] (H-[dY]ICI[Trp(1-Me)]QDW[Sar]AHRC[NMeI]-NH2; disulfide 3-13) | < 100 nM
3 | CC[C@H](C)[C@@H]1NC(=O)[C@@H](NC(=O)CN(C)C(=O)[C@H](CCC(=O)O)NC(=O)[C@H](CO)NC(C)=O)CSSC[C@@H](C(=O)N[C@H](C(=O)N[C@@H](CCC(=O)O)C(=O)N[C@@H](C)C(N)=O)[C@@H](C)O)NC(=O)[C@H](CCCNC(=N)N)NC(=O)[C@H](Cc2c[nH]cn2)NC(=O)[C@H](CCC(=O)O)NC(=O)CNC(=O)[C@H](Cc2c[nH]c3ccccc23)NC(=O)[C@H](CC(=O)O)NC(=O)[C@H](CCC(N)=O)NC(=O)[C@H](Cc2cn(C)c3ccccc23)NC1=O [Compound 82] (Ac-SE[Sar]CI[Trp(1-Me)]QDWGEHRCTEA-NH2; disulfide 4-14) | < 100 nM
4 | CC[C@H](C)[C@@H]1NC(=O)[C@@H](NC(=O)[C@H](Cc2ccccc2)NC(=O)[C@H](CCC(=O)O)NC(=O)[C@H](CO)NC(C)=O)CSSC[C@@H](C(=O)N(C)CC(=O)N[C@@H](CCC(=O)O)C(=O)N[C@@H](C)C(N)=O)NC(=O)[C@H](CCCCN)NC(=O)[C@H](Cc2c[nH]cn2)NC(=O)[C@H](CCC(=O)O)NC(=O)CNC(=O)[C@H](Cc2c[nH]c3ccccc23)NC(=O)[C@H](CC(=O)O)NC(=O)[C@H](CCC(N)=O)NC(=O)[C@H](Cc2cn(C)c3ccccc23)NC1=O [Compound 86] (Ac-SEFCI[Trp(1-Me)]QDWGEHKC[Sar]EA-NH2; disulfide 4-14) | < 100 nM
5 | CC[C@H](C)[C@H](NC(C)=O)C(=O)N[C@H]1CSSC[C@@H](C(=O)N[C@H](C(=O)N[C@@H](CCC(=O)O)C(N)=O)[C@@H](C)O)NC(=O)[C@H](CCCNC(=N)N)NC(=O)[C@H](Cc2c[nH]cn2)NC(=O)[C@H](CCC(=O)O)NC(=O)CNC(=O)[C@H](Cc2c[nH]c3ccccc23)NC(=O)[C@H](CC(=O)O)NC(=O)[C@H](CCC(N)=O)NC(=O)[C@H](Cc2c[nH]c3ccccc23)NC(=O)[C@H]([C@@H](C)CC)NC1=O [Compound 26] (Ac-ICIWQDWGEHRCTE-NH2; disulfide 2-12) | < 100 nM
6 | CC[C@H](C)[C@@H]1NC(=O)[C@@H](NC(=O)[C@H](Cc2ccccc2)NC(=O)[C@H](CCC(=O)O)NC(=O)[C@H](CO)NC(C)=O)CSSC[C@@H](C(=O)N(C)CC(=O)N[C@@H](CCC(=O)O)C(=O)NCC(=O)N[C@@H](CCC(=O)O)C(=O)NCCOCCOCC(=O)NCCOCCOCC(=O)NCCOCCOCC(=O)N[C@@H](CCCCNC(=O)CC[C@H](NC(=O)CNC(=O)CC[C@H](NC(=O)CCCCCCCCCCCCCCCCC(=O)O)C(=O)O)C(=O)O)C(N)=O)NC(=O)[C@H](CCCNC(=N)N)NC(=O)[C@H](Cc2c[nH]cn2)NC(=O)[C@H](CCC(=O)O)NC(=O)CNC(=O)[C@H](Cc2c[nH]c3ccccc23)NC(=O)[C@H](CC(=O)O)NC(=O)[C@H](CCC(N)=O)NC(=O)[C@H](Cc2cn(C)c3ccccc23)NC1=O [Compound 143] (Ac-SEFCI[Trp(1-Me)]QDWGEHRC[Sar]EGE[AEEA][AEEA][AEEA]K([γGlu-Gly-γGlu-C18 diacid])-NH2; disulfide 4-14) | < 100 nM
7 | CC[C@H](C)[C@H](NC(C)=O)C(=O)N[C@H]1CSSC[C@@H](C(=O)N[C@H](C(N)=O)[C@@H](C)O)NC(=O)[C@H](CCCNC(=N)N)NC(=O)[C@H](Cc2c[nH]cn2)NC(=O)[C@H](C)NC(=O)CNC(=O)[C@H](Cc2c[nH]c3ccccc23)NC(=O)[C@H](CC(=O)O)NC(=O)[C@H](CCC(N)=O)NC(=O)[C@H](Cc2c[nH]c3ccccc23)NC(=O)[C@H](C(C)C)NC1=O [Compound 4W9A, reference compound] | < 500 nM
8 | CC[C@H](C)[C@@H]1NC(=O)[C@@H](NC(=O)[C@H](Cc2ccccc2)NC(=O)[C@H](CCC(=O)O)NC(=O)[C@H](CO)NC(C)=O)CSSC[C@@H](C(=O)N[C@H](C(=O)N[C@@H](CCC(=O)O)C(=O)NCC(=O)N[C@@H](CCC(=O)O)C(=O)NCCCCCCCC(=O)N[C@@H](CCC(=O)O)C(=O)N[C@@H](CCCCNC(=O)CC[C@H](NC(=O)CNC(=O)CC[C@H](NC(=O)CCCCCCCCCCCCCCCCC(=O)O)C(=O)O)C(=O)O)C(N)=O)[C@@H](C)O)NC(=O)[C@H](CCCNC(=N)N)NC(=O)[C@H](Cc2c[nH]cn2)NC(=O)[C@H](CCC(=O)O)NC(=O)CNC(=O)[C@H](Cc2c[nH]c3ccccc23)NC(=O)[C@H](CC(=O)O)NC(=O)[C@H](CCC(N)=O)NC(=O)[C@H](Cc2cn(C)c3ccccc23)NC1=O [Compound 137] (Ac-SEFCI[Trp(1-Me)]QDWGEHRCTEGE[Aoc]EK([γGlu-Gly-γGlu-C18 diacid])-NH2; disulfide 4-14) | < 100 nM
9 | CC[C@H](C)[C@H](NC(C)=O)C(=O)N[C@H]1CSSC[C@@H](C(=O)N[C@H](C(=O)N[C@@H](CCC(=O)O)C(=O)NCC(=O)N[C@@H](CCCCNC(=O)COCCOCCNC(=O)COCCOCCNC(=O)CC[C@H](NC(=O)CCCCCCCCCCCCCCC(=O)O)C(=O)O)C(N)=O)[C@@H](C)O)NC(=O)[C@H](CCCNC(=N)N)NC(=O)[C@H](Cc2c[nH]cn2)NC(=O)[C@H](CCC(=O)O)NC(=O)CNC(=O)[C@H](Cc2c[nH]c3ccccc23)NC(=O)[C@H](CC(=O)O)NC(=O)[C@H](CCC(N)=O)NC(=O)[C@H](Cc2c[nH]c3ccccc23)NC(=O)[C@H]([C@@H](C)CC)NC1=O [Compound 93] (Ac-ICIWQDWGEHRCTEGK([AEEA-AEEA-γGlu-C16 diacid])-NH2; disulfide 2-12) | < 500 nM
10 | CC[C@H](C)[C@H](NC(C)=O)C(=O)N[C@H]1CSSC[C@@H](C(=O)N[C@H](C(N)=O)[C@@H](C)O)NC(=O)[C@H](CO)NC(=O)[C@H](Cc2c[nH]cn2)NC(=O)[C@H](CCC(=O)O)NC(=O)CNC(=O)[C@H](Cc2c[nH]c3ccccc23)NC(=O)[C@H](CC(=O)O)NC(=O)[C@H](CCC(N)=O)NC(=O)[C@H](Cc2c[nH]c3ccccc23)NC(=O)[C@H]([C@@H](C)CC)NC1=O [Compound 20] (Ac-ICIWQDWGEHSCT-NH2; disulfide 2-12) | < 100 nM

Same assay, conditions: human serum, sensitized sheep red blood cells; Table 4, valine 3 vs isoleucine 3 pairs; read-out: CP hemolysis IC50

Row | Structure (SMILES) | IC50
11 | CC[C@H](C)[C@H](NC(C)=O)C(=O)N[C@H]1CSSC[C@@H](C(=O)N[C@H](C(N)=O)[C@@H](C)O)NC(=O)[C@H](CO)NC(=O)[C@H](Cc2c[nH]cn2)NC(=O)[C@H](C)NC(=O)CNC(=O)[C@H](Cc2c[nH]c3ccccc23)NC(=O)[C@H](CC(=O)O)NC(=O)[C@H](CCC(N)=O)NC(=O)[C@H](Cc2c[nH]c3ccccc23)NC(=O)[C@H](C(C)C)NC1=O [E, reference compound] (Ac-ICVWQDWGAHSCT-NH2; disulfide 2-12) | > 1000 nM
12 | CC[C@H](C)[C@H](NC(C)=O)C(=O)N[C@H]1CSSC[C@@H](C(=O)N[C@H](C(N)=O)[C@@H](C)O)NC(=O)[C@H](CO)NC(=O)[C@H](Cc2c[nH]cn2)NC(=O)[C@H](CCC(=O)O)NC(=O)CNC(=O)[C@H](Cc2c[nH]c3ccccc23)NC(=O)[C@H](CC(=O)O)NC(=O)[C@H](CCC(N)=O)NC(=O)[C@H](Cc2c[nH]c3ccccc23)NC(=O)[C@H]([C@@H](C)CC)NC1=O [Compound 20] (Ac-ICIWQDWGEHSCT-NH2; disulfide 2-12) | 59 nM
13 | CC[C@H](C)[C@H](NC(=O)[C@H](C)NC(=O)[C@H](CO)NC(=O)[C@H](CO)NC(=O)[C@H](CCC(=O)O)NC(C)=O)C(=O)N[C@H]1CSSC[C@@H](C(=O)N[C@H](C(N)=O)[C@@H](C)O)NC(=O)[C@H](CCCNC(=N)N)NC(=O)[C@H](Cc2c[nH]cn2)NC(=O)[C@H](CCC(=O)O)NC(=O)CNC(=O)[C@H](Cc2c[nH]c3ccccc23)NC(=O)[C@H](CC(=O)O)NC(=O)[C@H](CCC(N)=O)NC(=O)[C@H](Cc2c[nH]c3ccccc23)NC(=O)[C@H](C(C)C)NC1=O [C, reference compound] (Ac-ESSAICVWQDWGEHRCT-NH2; disulfide 6-16) | 300 nM
